# Measured values taken from US20250276993A1, “PSEUDO-DISACCHARIDE COMPOUNDS” (UNIVERSITEIT LEIDEN, priority 2022, published 2025).
# Tests used:
# [1] = target: T1, HPSE (platelet) (Homo sapiens, UniProt Q9Y251); assay: cABPP Assay 2, platelet lysates, HPSE; assay type: biochemical
# T1 construct: endogenous in cells; host or cells: human platelet lysates
# T1 sequence (Q9Y251 158-543 limits assumed): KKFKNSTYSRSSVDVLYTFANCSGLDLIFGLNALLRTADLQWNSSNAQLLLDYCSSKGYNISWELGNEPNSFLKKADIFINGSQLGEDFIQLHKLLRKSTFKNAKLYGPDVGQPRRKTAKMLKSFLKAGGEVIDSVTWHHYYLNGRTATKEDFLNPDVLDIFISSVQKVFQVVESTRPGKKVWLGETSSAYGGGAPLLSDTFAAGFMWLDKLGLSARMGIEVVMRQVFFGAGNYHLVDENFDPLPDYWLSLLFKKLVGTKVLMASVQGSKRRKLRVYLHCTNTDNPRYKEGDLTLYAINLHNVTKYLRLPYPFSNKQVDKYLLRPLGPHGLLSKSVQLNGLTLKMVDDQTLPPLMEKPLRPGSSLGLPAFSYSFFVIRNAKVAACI
# T1 sequence (Q9Y251 36-109 limits assumed): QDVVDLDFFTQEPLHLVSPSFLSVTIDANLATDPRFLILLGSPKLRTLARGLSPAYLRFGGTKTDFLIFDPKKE
# Experimental: For further competitive ABPP studies, a working protein mixture was prepared by mixing the platelet lysates (87.5 μL), buffer (pH 5.0, 150 mM, 157.5 μL) and 3 M NaCl solution (35 μL). The enzymatic reactions were carried out at a constant concentration of read-out 7 (100 nM, final). For each inhibitor 2, 12 and 13, triplicate sets of ten 0.5 mL low protein binding Eppendorf tubes were prepared. Working solutions of each inhibitor (1% DMSO (w/v), 5 μL) in a range of ten concentrations (100, 50, 25, 12.5, 6.3, 3.1, 1.6, 0.8, 0.4, 0 μM) were prepared with MilliQ water and kept on ice. The working protein mixture (8 μL) was added in each protein low binding 0.5 mL Eppendorf tube, and 1 μL of inhibitor solution was added while on ice.
# Further cABPP studies were undertaken using platelet lysates to provide a more physiologically realistic environment. Platelet lysates contain complex mixtures of overlapping enzyme activities, including both endo- and exo-β-glucuronidases HPSE and GUSB respectively, thus provide a challenging environment to test inhibitor specificity.
# [2] = target: T2, HPSE (Homo sapiens, UniProt Q9Y251); assay: X-ray crystallography, ligand soaking of HPSE crystals; settings: crystal soaking
# T2 sequence (Q9Y251 36-109 limits assumed): T1 sequence (Q9Y251 36-109 limits assumed)
# T2 sequence (Q9Y251 158-543 limits assumed): T1 sequence (Q9Y251 158-543 limits assumed)
# Text: Xray diffraction data were collected at 100 K at beamlines i03 (HPSE-2, HPSE-3, HPSE-4, EcGUSB-1, BpHep-3), i04 (AcGH79-2, BpHep-2) and i04-1 (Apo-AcGH79, AcGH79-1, AcGH79-3) of the Diamond Light Source UK. Reflections were autoprocessed using the XIA2 pipeline. Complexes were solved by directly refining against their unliganded structures where isomorphous, or else solved by molecular replacement with PHASER (search model PDB accessions: 5E98 (HPSE), 3VNY (AcGH79), 3K46 (EcGUSB), 5BWI (BpHep)). […] Ligand coordinates were built using jLigand. Diagrams were generated using PyMOL.
# HPSE—Well diffracting crystals of HPSE were obtained by the sitting-drop vapor-diffusion method at 20° C. using a well solution containing 0.1 M MES pH 5.5, 0.1 M MgCl2, 17% (w/v) PEG 3350, and a protein to well solution ratio of 200 nl:500 nl. Crystals typically appeared after 1 week. Inhibitor ligand complexes were obtained by transferring HPSE crystals to drops of well solution supplemented with 25% (v/v) ethylene glycol and 1-5 mM inhibitor. Crystals were incubated with ligand for ˜2-4 h, then directly harvested and flash-cooled in LN2 for data collection.
# To better understand the molecular basis of interaction between our inhibitors and their targets, we turned to X-ray crystallography, using ligand soaking to derivatize enzymes in crystallo.
# [3] = tested on: U87 glioblastoma cells; assay: Matrigel invasion assay; assay type: cell-based, human; settings: 20 μM inhibitor, 4 h
# Experimental: The Matrigel invasion assay was used to assess the effects of the compounds of the invention on cancer cell aggression. This is an in cellulo model of cell invasion through a HSPG rich basement membrane. The ability of cells to migrate through transwell inserts coated with Matrigel (an ECM secretion from Engelbreth-Holm-Swarm mouse sarcoma cells) correlates well with their in vivo invasive potential (Hall et al., Methods Mol Biol, 1070, 1-11 (2014)).
# 1×10^5 U87 cells in 200 μL DMEM media (without serum) were seeded onto the top chamber of a Matrigel-coated Boyden transwell filter, alongside 20 μM HPSE inhibitor (or PBS control). Cells in the upper chamber were separated by Matrigel from a lower chamber containing 600 μL DMEM, supplemented with 10% FBS. Plates were incubated at 37° C. for 4 h, before fixing cells in 4% (v/v) paraformaldehyde, and staining with 0.5% (w/v) crystal violet. Matrigel and non-migrating cells in the upper side of the Boyden filter were removed by swabbing, then invading cells on the bottom side of the transwell filter imaged for analysis. 10 randomly selected microscopic fields were recorded, and cell invasion calculated using ImageJ, by quantitating the percentage of the field stained by crystal violet. Graphs were plotted using RStudio.
# The Matrigel invasion assay was used to assess the effects of the compounds of the invention on cancer cell aggression. […]
compound,measurement,setting,value
"CC(=O)NC1C(O)[C@H](O)C(CO)O[C@@H]1O[C@H]1C(O)C(O)[C@@H]2OC2C1C(=O)O (stereo partly drawn) [Compound 2, 4-O-(2-N-acetyl-2-deoxy-D-glucopyranosyl)-glucurono-cyclophellitol]",IC50,"[1]; apparent IC50, in-gel competitive ABPP-based assay, platelet lysate, read-out: In vitro IC50 HPSE (platelet)",900 ± 300 nM
same,inhibitor concentration down to which HPSE signal is abrogated,"[1]; platelet lysates, preincubation with inhibitor",2.5 µM
same,binding mode in HPSE active site cleft,[2],covalent linkages between their pseudo-anomeric carbons and the enzyme nucleophile Glu343
same,Matrigel invasion,[3],significantly reduced Matrigel invasion
